Reference: PMC4994520 (European journal of medicinal chemistry, 2012)
Read-outs that look alike come from different tables or passages of the source.

Legend:
PDE10A = PDE10A (Homo sapiens, UniProt Q9Y233); test: PDE10A inhibition, IMAP fluorescence polarization assay; assay type: biochemical
PDE11A = PDE11A (Homo sapiens, UniProt Q9HCR9); test: PDE11A inhibition, IMAP fluorescence polarization assay; assay type: biochemical; conditions: for IC50: read-out: PDE11A inhibition IC50 μM
PDE2A = PDE2A (Homo sapiens, UniProt O00408); test: PDE2A inhibition, IMAP fluorescence polarization assay; assay type: biochemical
PDE1A = PDE1A (Homo sapiens, UniProt P54750); test: PDE1A inhibition, IMAP fluorescence polarization assay; assay type: biochemical
PDE3A = PDE3A (Homo sapiens, UniProt Q14432); test: PDE3A inhibition, IMAP fluorescence polarization assay; assay type: biochemical
PDE3B = PDE3B (Homo sapiens, UniProt Q13370); test: PDE3B inhibition, IMAP fluorescence polarization assay; assay type: biochemical
PDE9A = PDE9A (Homo sapiens, UniProt O76083); test: PDE9A inhibition, IMAP fluorescence polarization assay; assay type: biochemical
human PDE5 [1] = target: T1, human PDE5 (Homo sapiens, UniProt O76074); test: PDE5 inhibition, IMAP fluorescence polarization phosphodiesterase assay; assay type: biochemical
human PDE5 [2] = target: T1, human PDE5; conditions: tadalafil and earlier analogues, Table 1; cited from earlier work
[3] = read-out: PDE2A inhibition IC50 μM, substrate cGMP
[4] = read-out: PDE1A inhibition IC50 μM, substrate cGMP
[5] = read-out: PDE3A inhibition IC50 μM, substrate cGMP
[6] = read-out: PDE3B inhibition IC50 μM, substrate cGMP

Sequence of PDE11A (Q9HCR9 whole entry): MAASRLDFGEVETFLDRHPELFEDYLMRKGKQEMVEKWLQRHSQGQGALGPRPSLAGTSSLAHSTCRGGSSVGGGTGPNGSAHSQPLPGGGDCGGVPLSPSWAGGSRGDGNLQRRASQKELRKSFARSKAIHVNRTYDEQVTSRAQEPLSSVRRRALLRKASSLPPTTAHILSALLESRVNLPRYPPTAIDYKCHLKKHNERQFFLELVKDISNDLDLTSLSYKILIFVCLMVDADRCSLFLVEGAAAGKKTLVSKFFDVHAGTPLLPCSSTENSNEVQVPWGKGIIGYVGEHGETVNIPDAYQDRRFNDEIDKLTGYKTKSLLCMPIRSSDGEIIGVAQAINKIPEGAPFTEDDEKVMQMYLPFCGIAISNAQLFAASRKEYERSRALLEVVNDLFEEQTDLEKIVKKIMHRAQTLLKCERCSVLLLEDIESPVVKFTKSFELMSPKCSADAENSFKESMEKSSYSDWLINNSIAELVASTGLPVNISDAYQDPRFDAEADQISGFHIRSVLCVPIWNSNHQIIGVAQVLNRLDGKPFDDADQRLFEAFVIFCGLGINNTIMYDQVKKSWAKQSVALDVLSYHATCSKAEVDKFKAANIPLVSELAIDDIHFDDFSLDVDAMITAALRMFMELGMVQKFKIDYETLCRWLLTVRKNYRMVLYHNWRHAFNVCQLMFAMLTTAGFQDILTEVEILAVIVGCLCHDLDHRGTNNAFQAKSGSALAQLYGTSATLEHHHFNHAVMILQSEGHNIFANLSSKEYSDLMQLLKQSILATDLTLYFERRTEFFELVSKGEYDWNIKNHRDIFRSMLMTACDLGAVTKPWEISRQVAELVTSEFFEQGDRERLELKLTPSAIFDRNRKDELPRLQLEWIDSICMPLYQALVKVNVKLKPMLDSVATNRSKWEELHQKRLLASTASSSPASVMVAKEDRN
Sequence of PDE3A (Q14432 whole entry): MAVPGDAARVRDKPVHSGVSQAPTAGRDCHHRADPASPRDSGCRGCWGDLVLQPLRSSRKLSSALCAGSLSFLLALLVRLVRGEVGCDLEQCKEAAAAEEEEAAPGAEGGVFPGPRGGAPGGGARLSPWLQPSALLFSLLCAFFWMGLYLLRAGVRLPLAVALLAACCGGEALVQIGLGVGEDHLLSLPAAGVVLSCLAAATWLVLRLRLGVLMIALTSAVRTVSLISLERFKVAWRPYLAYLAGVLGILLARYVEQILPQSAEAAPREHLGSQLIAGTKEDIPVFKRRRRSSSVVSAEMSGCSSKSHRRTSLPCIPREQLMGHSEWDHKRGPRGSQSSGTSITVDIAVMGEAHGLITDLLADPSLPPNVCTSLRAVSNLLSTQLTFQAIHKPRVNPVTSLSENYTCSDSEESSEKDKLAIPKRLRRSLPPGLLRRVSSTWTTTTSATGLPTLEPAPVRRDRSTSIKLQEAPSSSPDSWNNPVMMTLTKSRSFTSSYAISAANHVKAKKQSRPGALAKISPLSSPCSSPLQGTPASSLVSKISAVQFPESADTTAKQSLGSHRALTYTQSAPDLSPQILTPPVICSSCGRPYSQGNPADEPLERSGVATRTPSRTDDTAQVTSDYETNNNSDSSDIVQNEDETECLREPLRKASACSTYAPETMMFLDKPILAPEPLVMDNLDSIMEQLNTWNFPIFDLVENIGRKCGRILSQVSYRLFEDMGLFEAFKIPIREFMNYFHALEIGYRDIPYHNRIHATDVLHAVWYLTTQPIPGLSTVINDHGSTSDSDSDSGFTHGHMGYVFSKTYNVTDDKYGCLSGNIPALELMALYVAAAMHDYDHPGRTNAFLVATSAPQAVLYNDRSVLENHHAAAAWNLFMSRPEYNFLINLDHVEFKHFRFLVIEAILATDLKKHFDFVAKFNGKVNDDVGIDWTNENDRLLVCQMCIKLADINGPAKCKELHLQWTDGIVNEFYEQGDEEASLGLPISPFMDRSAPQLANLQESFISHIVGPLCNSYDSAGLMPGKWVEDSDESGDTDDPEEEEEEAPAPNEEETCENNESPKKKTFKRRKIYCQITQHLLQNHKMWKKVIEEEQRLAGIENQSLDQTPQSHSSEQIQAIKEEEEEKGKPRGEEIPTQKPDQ
Sequence of PDE2A (O00408 whole entry): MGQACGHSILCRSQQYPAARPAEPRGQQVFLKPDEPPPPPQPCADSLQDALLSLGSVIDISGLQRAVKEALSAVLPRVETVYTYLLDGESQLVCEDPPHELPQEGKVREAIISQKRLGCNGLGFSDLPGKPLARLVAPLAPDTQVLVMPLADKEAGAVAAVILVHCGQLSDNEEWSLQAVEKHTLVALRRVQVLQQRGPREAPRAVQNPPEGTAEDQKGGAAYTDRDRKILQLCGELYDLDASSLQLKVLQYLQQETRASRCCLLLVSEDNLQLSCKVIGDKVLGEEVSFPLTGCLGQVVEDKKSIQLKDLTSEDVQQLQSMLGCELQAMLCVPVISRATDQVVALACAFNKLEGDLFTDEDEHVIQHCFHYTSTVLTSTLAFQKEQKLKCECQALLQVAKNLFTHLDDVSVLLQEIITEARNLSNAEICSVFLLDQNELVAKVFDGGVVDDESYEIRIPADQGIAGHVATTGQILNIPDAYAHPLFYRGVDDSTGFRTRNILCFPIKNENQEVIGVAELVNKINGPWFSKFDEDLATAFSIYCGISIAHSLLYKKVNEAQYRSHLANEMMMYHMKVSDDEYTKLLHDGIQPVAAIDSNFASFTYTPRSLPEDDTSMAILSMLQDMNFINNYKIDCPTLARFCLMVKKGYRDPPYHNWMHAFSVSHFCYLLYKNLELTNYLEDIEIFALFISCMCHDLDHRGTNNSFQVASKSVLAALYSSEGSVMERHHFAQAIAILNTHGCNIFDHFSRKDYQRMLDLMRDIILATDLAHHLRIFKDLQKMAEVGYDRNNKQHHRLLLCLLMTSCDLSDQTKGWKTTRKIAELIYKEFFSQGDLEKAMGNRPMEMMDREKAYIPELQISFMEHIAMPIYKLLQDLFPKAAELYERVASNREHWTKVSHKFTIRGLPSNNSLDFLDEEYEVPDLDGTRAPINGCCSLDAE
Sequence of PDE10A (Q9Y233 290-1055 limits assumed): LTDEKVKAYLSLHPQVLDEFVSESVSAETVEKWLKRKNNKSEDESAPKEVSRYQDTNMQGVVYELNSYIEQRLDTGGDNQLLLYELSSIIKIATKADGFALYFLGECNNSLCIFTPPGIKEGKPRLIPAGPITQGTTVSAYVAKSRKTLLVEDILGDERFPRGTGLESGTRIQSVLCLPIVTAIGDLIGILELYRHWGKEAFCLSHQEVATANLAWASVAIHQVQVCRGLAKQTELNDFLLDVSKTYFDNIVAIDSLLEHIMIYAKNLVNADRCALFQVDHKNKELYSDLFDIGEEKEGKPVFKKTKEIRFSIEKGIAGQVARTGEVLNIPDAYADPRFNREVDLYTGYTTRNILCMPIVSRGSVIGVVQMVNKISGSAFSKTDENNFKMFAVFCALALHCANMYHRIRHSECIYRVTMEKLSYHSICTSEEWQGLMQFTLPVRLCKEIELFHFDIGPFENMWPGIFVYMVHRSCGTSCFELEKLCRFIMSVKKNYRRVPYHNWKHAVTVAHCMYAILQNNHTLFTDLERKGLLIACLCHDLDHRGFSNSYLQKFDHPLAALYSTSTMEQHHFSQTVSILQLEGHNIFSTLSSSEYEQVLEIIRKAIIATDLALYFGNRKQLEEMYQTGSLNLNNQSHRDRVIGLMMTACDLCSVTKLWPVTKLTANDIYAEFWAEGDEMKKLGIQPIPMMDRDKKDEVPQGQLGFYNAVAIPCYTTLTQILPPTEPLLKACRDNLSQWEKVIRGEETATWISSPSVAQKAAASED
Sequence of PDE3B (Q13370 whole entry): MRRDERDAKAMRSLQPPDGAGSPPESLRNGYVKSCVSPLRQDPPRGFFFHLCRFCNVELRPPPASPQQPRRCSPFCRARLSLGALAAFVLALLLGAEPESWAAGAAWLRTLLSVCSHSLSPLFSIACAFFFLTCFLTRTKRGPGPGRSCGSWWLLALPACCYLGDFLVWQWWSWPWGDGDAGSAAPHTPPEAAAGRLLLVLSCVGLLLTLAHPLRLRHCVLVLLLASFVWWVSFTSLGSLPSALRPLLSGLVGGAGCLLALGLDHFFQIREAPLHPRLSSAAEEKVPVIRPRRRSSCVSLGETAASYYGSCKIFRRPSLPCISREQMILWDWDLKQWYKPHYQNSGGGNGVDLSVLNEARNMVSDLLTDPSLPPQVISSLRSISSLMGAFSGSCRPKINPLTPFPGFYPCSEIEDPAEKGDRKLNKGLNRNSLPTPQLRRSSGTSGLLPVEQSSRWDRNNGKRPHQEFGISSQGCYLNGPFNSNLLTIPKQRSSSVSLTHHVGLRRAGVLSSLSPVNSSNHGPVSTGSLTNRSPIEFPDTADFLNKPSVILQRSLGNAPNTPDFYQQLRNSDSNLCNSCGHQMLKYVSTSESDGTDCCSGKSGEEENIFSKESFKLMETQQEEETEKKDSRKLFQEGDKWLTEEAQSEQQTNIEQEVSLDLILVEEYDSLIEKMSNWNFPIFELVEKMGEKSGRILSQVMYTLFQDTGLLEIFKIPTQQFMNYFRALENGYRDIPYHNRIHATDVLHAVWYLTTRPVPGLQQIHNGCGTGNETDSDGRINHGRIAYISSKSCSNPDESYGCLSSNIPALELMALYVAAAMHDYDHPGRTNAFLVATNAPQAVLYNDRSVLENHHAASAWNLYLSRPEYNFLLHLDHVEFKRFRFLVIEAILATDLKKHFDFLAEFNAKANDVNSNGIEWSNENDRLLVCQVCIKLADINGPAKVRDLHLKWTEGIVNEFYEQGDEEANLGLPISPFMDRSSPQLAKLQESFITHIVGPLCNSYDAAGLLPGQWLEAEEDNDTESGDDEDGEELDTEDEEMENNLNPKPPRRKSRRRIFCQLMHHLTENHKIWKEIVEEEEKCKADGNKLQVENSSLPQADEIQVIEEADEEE

CCCCN1CC(=O)N2[C@H](c3ccc(Br)cc3)c3[nH]c4ccccc4c3C[C@@H]2C1=O [Compound 33]
0.6 µM: IC50 (PDE11A; substrate cGMP)
> 50 µM: IC50 (PDE10A; read-out: PDE10A inhibition IC50 μM, substrate cAMP) | IC50 (PDE10A; read-out: PDE10A inhibition IC50 μM, substrate cGMP) | IC50 (PDE2A; read-out: PDE2A inhibition IC50 μM, substrate cAMP) | IC50 (PDE2A; [3]) | IC50 (PDE1A; read-out: PDE1A inhibition IC50 μM, substrate cAMP) | IC50 (PDE1A; [4]) | IC50 (PDE3A; read-out: PDE3A inhibition IC50 μM, substrate cAMP) | IC50 (PDE3A; [5]) | IC50 (PDE3B; read-out: PDE3B inhibition IC50 μM, substrate cAMP) | IC50 (PDE3B; [6]) | IC50 (PDE9A; read-out: PDE9A inhibition IC50 μM, substrate cGMP)
87%: % PDE5 inhibition at 10 μM (human PDE5 [1]; 10 μM, triplicate)
1.2 µM: IC50 (PDE11A; substrate cAMP)
67: selectivity profile (selectivity index) PDE5 versus PDE11 (PDE11A; cGMP as the substrate)
0.009 µM: IC50 (human PDE5 [1]; read-out: IC50 μM (PDE5), 8 concentrations 1 nM–10 μM) | IC50 (human PDE5 [1]; read-out: PDE5A inhibition IC50 μM, substrate cAMP (as printed in sub-head))

CN1CC(=O)N2[C@H](c3ccc4c(c3)OCO4)c3[nH]c4ccccc4c3C[C@@H]2C1=O [Compound I, tadalafil, reference compound]
100%: % PDE5 inhibition at 10 μM (human PDE5 [2])
> 50 µM: IC50 (PDE10A; PDE10A inhibition IC50 μM, substrate cAMP) | IC50 (PDE10A; PDE10A inhibition IC50 μM, substrate cGMP) | IC50 (PDE2A) | IC50 (PDE2A; [3]) | IC50 (PDE1A) | IC50 (PDE1A; [4]) | IC50 (PDE3A) | IC50 (PDE3A; [5]) | IC50 (PDE3B) | IC50 (PDE3B; [6]) | IC50 (PDE9A)
